Experimental data from US10954267B2, “Dipeptide comprising a non-proteogenic amino acid” (Novo Nordisk A/S, priority 2011, dated 2021).
Square brackets hold non-standard residues; d marks the D form. Peptide text beside a SMILES is read from it. * marks the point of attachment. Fmoc = O=C(OCC1c2ccccc2-c2ccccc21)*; Aib = CC(C)(N)C(=O)O

Experiment: Storage stability studies of the dipeptide TFA salt
Format: physicochemical
Experimental: Fmoc-His(Trt)-Aib-OH (1 moleq., starting material) was suspended in DCM (1.5 mL/g) and TIPS (1.7 moleq.) was added. Cooled (0-10° C.) TFA (3 mL/g) was added and the mixture was stirred at ambient temperature until the reaction was completed (High-performance liquid chromatography (HPLC) conversion). DME (1 mL/g starting material) and TBME (11 mL/g starting material) was added leading to an increase in temperature. The temperature was slowly allowed to return to room temperature (rt) resulting in precipitation of a white solid. The mixture was stirred for an additional 3 hr and filtered. The precipitate was washed twice with TBME (3 mL/g starting material) and dried overnight in vacuo affording the de-tritylated dipeptide as TFA-salt in 90% yield.

Measured: stability (storage)

CC(C)(NC(=O)[C@H](Cc1c[nH]cn1)NC(=O)OCC1c2ccccc2-c2ccccc21)C(=O)O [Example 1, 2-[(S)-2-(9H-Fluoren-9-ylmethoxycarbonylamino)-3-(1H-imidazol-4-yl)-propanoylamino]-2-methyl-propanoic Acid Trifluoracatate] (Fmoc-His-[Aib]-OH)
more than 24 month: freeze (<−15° C.±5° C.) | fridge (5° C.±3° C.) | room temperature (20° C.±3° C.)
